20 molecules from BindingDB's records for PubMed 7908055 (Case Western Reserve University, 1994) can be followed below.

A word on the Ki: it is the equilibrium dissociation constant of an inhibitor or competing ligand from its target. Lower therefore signals tighter binding.

The target in test [1] is T1, 5-hydroxytryptamine receptor 2C (Rattus norvegicus, UniProt P08909).
T1 sequence (P08909 whole entry): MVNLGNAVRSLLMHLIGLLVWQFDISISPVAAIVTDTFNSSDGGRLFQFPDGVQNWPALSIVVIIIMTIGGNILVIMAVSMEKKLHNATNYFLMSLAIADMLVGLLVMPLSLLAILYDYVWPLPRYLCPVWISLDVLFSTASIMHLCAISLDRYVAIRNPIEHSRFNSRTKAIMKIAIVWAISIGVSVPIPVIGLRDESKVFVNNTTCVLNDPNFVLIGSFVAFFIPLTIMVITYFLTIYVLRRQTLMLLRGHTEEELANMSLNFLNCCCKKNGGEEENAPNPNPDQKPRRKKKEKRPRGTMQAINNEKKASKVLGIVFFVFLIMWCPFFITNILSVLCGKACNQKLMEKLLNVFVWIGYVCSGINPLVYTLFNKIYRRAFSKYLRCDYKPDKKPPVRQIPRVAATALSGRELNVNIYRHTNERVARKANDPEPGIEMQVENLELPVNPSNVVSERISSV

In test [2] the target is D(2) dopamine receptor (Rattus norvegicus, UniProt P61169).
Test [3] addresses 5-hydroxytryptamine receptor 2A (Rattus norvegicus, UniProt P14842).

D(2) dopamine receptor, sequence (P61169 whole entry): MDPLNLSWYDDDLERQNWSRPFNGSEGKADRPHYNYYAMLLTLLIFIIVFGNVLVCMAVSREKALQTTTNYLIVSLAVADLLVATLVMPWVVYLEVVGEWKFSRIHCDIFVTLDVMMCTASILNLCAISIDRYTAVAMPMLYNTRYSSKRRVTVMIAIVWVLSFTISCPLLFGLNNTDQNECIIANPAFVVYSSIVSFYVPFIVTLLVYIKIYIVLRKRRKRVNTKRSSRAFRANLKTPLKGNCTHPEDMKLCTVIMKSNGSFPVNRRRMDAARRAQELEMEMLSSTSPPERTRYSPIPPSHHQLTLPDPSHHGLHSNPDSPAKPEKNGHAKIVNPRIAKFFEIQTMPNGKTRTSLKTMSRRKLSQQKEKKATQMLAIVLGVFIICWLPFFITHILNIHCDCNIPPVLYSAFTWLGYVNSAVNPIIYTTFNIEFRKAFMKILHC
5-hydroxytryptamine receptor 2A, sequence (P14842 whole entry): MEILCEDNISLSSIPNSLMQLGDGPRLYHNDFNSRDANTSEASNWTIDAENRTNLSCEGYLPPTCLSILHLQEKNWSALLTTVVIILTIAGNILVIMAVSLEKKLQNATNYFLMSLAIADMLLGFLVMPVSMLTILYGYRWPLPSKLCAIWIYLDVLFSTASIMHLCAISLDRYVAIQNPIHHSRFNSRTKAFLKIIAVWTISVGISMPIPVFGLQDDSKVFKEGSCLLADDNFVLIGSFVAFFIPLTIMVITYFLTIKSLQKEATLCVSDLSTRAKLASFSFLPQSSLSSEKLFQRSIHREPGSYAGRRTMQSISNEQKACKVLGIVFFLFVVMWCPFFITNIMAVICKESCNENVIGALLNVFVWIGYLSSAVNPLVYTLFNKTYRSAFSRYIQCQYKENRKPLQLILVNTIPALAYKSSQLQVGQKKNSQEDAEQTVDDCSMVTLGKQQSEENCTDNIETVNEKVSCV

`CN1CCN(C2=Nc3cc(F)ccc3Cc3ccccc32)CC1`: the Ki is 19.9 nM in test [1], 316 nM in test [2] and 6.3 nM in test [3].

Turning to `CN1CCN(C2=Nc3ccccc3Cc3ccccc32)CC1`, the Ki in test [2] came out at 501 nM; in test [3], 12.6 nM.

`CN(C)CC/C=C1\c2ccccc2Sc2ccc(Cl)cc21` yielded a Ki in test [3] of 0.39 nM.

Consider `CN1CCCCC1CCN1c2ccccc2Sc2ccc([S+](C)[O-])cc21` (stereo unspecified), for which, in test [2], the Ki was 7.94 nM.

Turning to `CCNC(=O)N1CCN(CCCC(c2ccc(F)cc2)c2ccc(F)cc2)CC1`, the figures for the Ki in test [1], in test [2] and in test [3] were 1260 nM, 501 nM and 12.6 nM, respectively.

`O=c1[nH]c2ccccc2n1C1CCN(CCCC(c2ccc(F)cc2)c2ccc(F)cc2)CC1` [1-(1-(4,4-bis(4-fluorophenyl)butyl)piperidin-4-yl)-1H-benzo[d]imidazol-2(3H)-one] registered an inhibition constant Ki in test [1] greater than 10000 nM.

With `CN1CCN(CCCN2c3ccccc3Sc3ccc(Cl)cc32)CC1` [2-chloro-10-[3-(4-methylpiperazin-1-yl)propyl]phenothiazine;ethane-1,2-disulfonic acid], the Ki was 79.4 nM in test [1] and 6.3 nM in test [3].

For the molecule `CN1CCN(C2=Nc3ccccc3Sc3ccc(Cl)cc32)CC1` [2-chloro-11-(4-methylpiperazin-1-yl)dibenzo[b,f][1,4]thiazepine], in test [3], the affinity corresponds to a Ki of 0.79 nM.

For the molecule `CCN1CCC[C@H]1CNC(=O)c1c(O)c(Cl)cc(Cl)c1OC` [3,5-Dichloro-N-(1-ethyl-pyrrolidin-2-ylmethyl)-2-hydroxy-6-methoxy-benzamide (raclopride)], the inhibition constant Ki in test [1] and in test [3] was 5010 nM in each case.

On to `OCCN1CCN(CCCN2c3ccccc3Sc3ccc(Cl)cc32)CC1` [4-[3-(2-chlorophenothiazin-10-yl)propyl]-1-piperazineethanol], for which the values for the inhibitory constant (Ki) in test [1], in test [2] and in test [3] were 50.1 nM, 0.63 nM and 2.51 nM, respectively.

`CC1CN(CCCn2c3ccccc3c3ccccc32)CC(C)N1` (stereo unspecified) [9-[3-(3,5-dimethylpiperazin-1-yl)propyl]-9H-carbazole] had an inhibition constant (Ki) in test [3] of 5010 nM.

In test [2], `CN1CCN(C2=Nc3ccccc3Oc3ccc(Cl)cc32)CC1` [13-chloro-10-(4-methylpiperazin-1-yl)-2-oxa-9-azatricyclo[9.4.0.0^{3,8}]pentadeca-1(11),3,5,7,9,12,14-heptaene] gave a Ki of 7.94 nM.

Turning to `CC1CCN(CCCC(=O)c2ccc(F)cc2)CC1` [CAS_3575-80-2], the values for the inhibition constant (Ki) in test [1] and in test [2] were 1260 nM and 200 nM, respectively.

As to `CC(=O)c1ccc2c(c1)N(CCCN1CCN(CCO)CC1)c1ccccc1S2` [CAS_5714-00-1], in test [1], the affinity, expressed as Ki, was 1000 nM.

As to `CN1CCN(C2=Cc3cc(Cl)ccc3C(=CC#N)c3ccccc32)CC1` [CAS_79781-95-6], the figures for the inhibition constant Ki in test [1], in test [2] and in test [3] were 25.1 nM, 39.8 nM and 0.63 nM, respectively.

With `CN1CCN(CC/C=C2/c3ccccc3Sc3ccc(S(=O)(=O)N(C)C)cc32)CC1` [MLS000028463], the inhibition constant (Ki) in test [1] was found to be 1580 nM; in test [2], 0.63 nM.

As to `CCc1c(C)[nH]c2c1C(=O)C(CN1CCOCC1)CC2` (stereo unspecified) [Moban], the inhibition constant Ki in test [2] came out at 15.8 nM; in test [3] it was 501 nM.

As for `CN1CCN(C2=Nc3cscc3C(=CC#N)c3cscc32)CC1` [NSC_3086153], the Ki in test [1] was 63.1 nM; in test [2], 1580 nM.

`OC1(c2ccc(Cl)c(C(F)(F)F)c2)CCN(CCCC(c2ccc(F)cc2)c2ccc(F)cc2)CC1` [Penfluridol] returned a Ki in test [3] of 63.1 nM.

Take `O=C1CC2(CCCC2)CC(=O)N1CCCCN1CCN(c2nsc3ccccc23)CC1` [TIOSPERONE]: the Ki in test [1] stood at 10 nM; in test [2], 0.5 nM.
